Converted amounts (≈) assume the structure as drawn. The source made the active and inactive calls. The rule behind the calls is not given here.
Key:
[1] = AUC(0 to t) in Sprague-Dawley rat at 5 mg/kg, iv measured upto 24 hrs; format: ADME, organism-based; settings: in vivo
[2] = Cmax in Sprague-Dawley rat at 5 mg/kg, iv measured upto 24 hrs; format: ADME, organism-based; settings: in vivo
[3] = tested on: T-24; assay: Induction in apoptosis in human T24 cells assessed as early apoptotic cells at 0.25 uM incubated for 48 hrs by Annexin V-FITC staining based flow cytometry analysis (reference value: 3.64 %); format: functional
[4] = Selectivity index, ratio of IC50 for cytotoxicity against human LO2 cells to IC50 for antiproliferative activity against human T24 cells; format: toxicity, cell-based; settings: LO2 cells and T24 cells, read-out: Ratio IC50
[5] = Solubility of the compound in aqueous saline; format: physicochemical
[6] = tested on: T-24; assay: Induction in apoptosis in human T24 cells assessed as necrotic cells at 0.13 uM incubated for 48 hrs by Annexin V-FITC staining based flow cytometry analysis (reference value: 1.14 %); format: functional
[7] = Solubility of the compound in Solutol HS-15; format: physicochemical
[8] = tested on: T-24; assay: Inhibition of cell migration in human T24 cells at 0.50 uM incubated for 24 hrs by scratch assay (reference value: 88 %); format: functional; settings: T-24, 24 h
[9] = Downregulation of STAT3 expression level in human T24 cells at 0.25 uM incubated for 24 hrs by Western blotting analysis relative to control; format: functional, T-24
[10] = tested on: T-24; assay: Induction of cell cycle arrest in human T24 cells assessed as accumulation of cells at G2/M phase at 0.25 uM incubated for 24 hrs by RNase A/Propidium Iodide staining based flow cytometry analysis (reference value: 22.67 %); format: functional
[11] = tested on: T-24; assay: Induction of cell cycle arrest in human T24 cells assessed as accumulation of cells at G1 phase at 0.13 uM incubated for 24 hrs by RNase A/Propidium Iodide staining based flow cytometry analysis (reference value: 43.80 %); format: functional
[12] = tested on: T-24; assay: Induction in apoptosis in human T24 cells assessed as viable cells at 0.5 uM incubated for 48 hrs by Annexin V-FITC staining based flow cytometry analysis (reference value: 90.44 %); format: functional; settings: read-out: Activity
[13] = tested on: T-24; assay: Inhibition of cell migration in human T24 cells at 0.25 uM incubated for 12 hrs by scratch assay (reference value: 66 %); format: functional
[14] = Volume of distribution at steady state in Sprague-Dawley rat at 5 mg/kg, iv measured upto 24 hrs; format: ADME, organism-based; settings: in vivo, read-out: Vdss
[15] = Toxicity in male C57BL/6 mouse allografted with mouse MB49 cells assessed as adverse effect at 1 mg/kg,iv bid measured after 14 days; format: organism-based; settings: in vivo, 336 h, time 14 day
[16] = tested on: T-24; assay: Induction in apoptosis in human T24 cells assessed as viable cells at 0.25 uM incubated for 48 hrs by Annexin V-FITC staining based flow cytometry analysis (reference value: 90.44 %); format: functional; settings: read-out: Activity
[17] = Toxicity in male C57BL/6 mouse allografted with mouse MB49 cells assessed as body weight change at 1 mg/kg,iv bid measured after 14 days; format: organism-based; settings: in vivo, 336 h, time 14 day
[18] = tested on: Bel-7402; assay: Antiproliferative activity against human Bel-7402 cells assessed as inhibition of cell proliferation measured after 72 hrs by MTT assay; format: functional, cell-based; settings: Bel-7402, 72 h
[19] = Clearance in Sprague-Dawley rat at 5 mg/kg, iv measured upto 24 hrs; format: ADME, organism-based; settings: in vivo
[20] = tested on: T-24; assay: Induction in apoptosis in human T24 cells assessed as late apoptotic cells at 0.5 uM incubated for 48 hrs by Annexin V-FITC staining based flow cytometry analysis (reference value: 4.78 %); format: functional
[21] = biological target: Signal transducer and activator of transcription 3 (Homo sapiens) (UniProt P40763); assay: Inhibition of STAT3 phosphorylation in human T24 cells incubated for 24 hrs by Western blotting analysis; format: cell-based; settings: dose 0.13-0.5 µM
[22] = tested on: MB49; assay: Antitumor immunity against mouse MB49 cells implanted in male C57BL/6 mouse assessed as increase in infiltration of CD4+ cells at 1 mg/kg,iv bid measured after 14 days immunofluorescence based analysis; format: functional, organism-based; settings: time 14.0 day
[23] = tested on: T-24; assay: Induction in apoptosis in human T24 cells assessed as late apoptotic cells at 0.25 uM incubated for 48 hrs by Annexin V-FITC staining based flow cytometry analysis (reference value: 4.78 %); format: functional
[24] = Antitumor activity against mouse MB49 cells implanted in male C57BL/6 mouse model assessed as tumor growth inhibition at 1 mg/kg,iv bid measured after 14 days relative to control; format: functional; settings: MB49, 336 h, time 14 day, read-out: TGI
[25] = tested on: T-24; assay: Induction of cell cycle arrest in human T24 cells assessed as accumulation of cells at G1 phase at 0.50 uM incubated for 24 hrs by RNase A/Propidium Iodide staining based flow cytometry analysis (reference value: 43.80 %); format: functional; settings: dose 0.5 µM
[26] = tested on: T-24; assay: Antiproliferative activity against human T24 cells assessed as inhibition of cell proliferation at 0.25 uM incubated for 120 hrs by MTT assay relative to control; format: functional
[27] = tested on: T-24; assay: Induction in apoptosis in human T24 cells assessed as necrotic cells at 0.5 uM incubated for 48 hrs by Annexin V-FITC staining based flow cytometry analysis (reference value: 1.14 %); format: functional
[28] = Downregulation of BMX expression level in human T24 cells at 0.5 uM incubated for 24 hrs by Western blotting analysis relative to control; format: functional, T-24
[29] = tested on: T-24; assay: Inhibition of colony formation in human T24 cells at 0.25 uM measured after 10 days by crystal violet staining based analysis; format: functional, cell-based; settings: time 10.0 day
[30] = Toxicity in ICR mouse assessed as body weight change at 688 mg/kg, IG administered once for 14 days; format: organism-based; settings: in vivo, po, 336 h, time 14 day
[31] = tested on: T-24; assay: Induction in apoptosis in human T24 cells assessed as early apoptotic cells at 0.5 uM incubated for 48 hrs by Annexin V-FITC staining based flow cytometry analysis (reference value: 3.64 %); format: functional
[32] = tested on: T-24; assay: Antiproliferative activity against human T24 cells assessed as inhibition of cell proliferation measured after 72 hrs by MTT assay; format: functional, cell-based; settings: T-24, 72 h
[33] = tested on: L1210; assay: Antiproliferative activity against mouse L1210 cells assessed as inhibition of cell proliferation measured after 72 hrs by MTT assay; format: functional, cell-based; settings: L1210, 72 h
[34] = tested on: T-24; assay: Induction in apoptosis in human T24 cells assessed as necrotic cells at 0.25 uM incubated for 48 hrs by Annexin V-FITC staining based flow cytometry analysis (reference value: 1.14 %); format: functional
[35] = Solubility of the compound in 5% saline and 50% PEG400; format: physicochemical

Signal transducer and activator of transcription 3 (Homo sapiens), sequence (P40763 whole entry): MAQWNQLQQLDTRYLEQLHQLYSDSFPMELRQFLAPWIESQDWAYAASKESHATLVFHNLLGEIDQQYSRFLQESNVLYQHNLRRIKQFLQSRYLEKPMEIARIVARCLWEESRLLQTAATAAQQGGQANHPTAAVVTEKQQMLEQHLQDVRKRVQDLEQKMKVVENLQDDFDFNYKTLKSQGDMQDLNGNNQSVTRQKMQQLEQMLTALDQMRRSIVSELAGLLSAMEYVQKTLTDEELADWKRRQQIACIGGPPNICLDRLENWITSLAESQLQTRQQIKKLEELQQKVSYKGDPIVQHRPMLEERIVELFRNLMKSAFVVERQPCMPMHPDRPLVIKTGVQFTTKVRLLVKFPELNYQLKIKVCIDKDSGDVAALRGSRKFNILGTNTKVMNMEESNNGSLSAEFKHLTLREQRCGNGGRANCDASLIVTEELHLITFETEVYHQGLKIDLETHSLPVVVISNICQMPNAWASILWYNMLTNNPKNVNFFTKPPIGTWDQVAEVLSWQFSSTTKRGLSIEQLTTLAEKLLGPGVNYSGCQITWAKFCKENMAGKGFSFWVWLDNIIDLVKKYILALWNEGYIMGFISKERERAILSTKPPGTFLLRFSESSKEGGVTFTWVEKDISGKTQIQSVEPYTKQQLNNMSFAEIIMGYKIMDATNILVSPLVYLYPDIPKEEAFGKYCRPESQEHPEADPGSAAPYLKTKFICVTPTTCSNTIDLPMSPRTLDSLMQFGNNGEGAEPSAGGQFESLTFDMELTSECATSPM

For `C[C@H]1CCC/C=C/[C@@H]2C[C@H](O)C[C@H]2[C@H](OC(=O)c2cccnc2)/C=C/C(=O)O1`, the AUC(0-t) at 24 h [1] was 1350 ng·h/mL, the Cmax [2] was 1460 ng/mL and the Activity [3] was 6.75%. The selectivity ratio [4] was 3.59, the solubility [5] was < 1000 µg/mL and the Activity [6] was 0.91%. It also gave a solubility [7] of 2000 µg/mL (≈ 5.19 mM), a wound closure at 0.5 µM [8] of 17% and an Activity [9] of 53%. The Activity [10] was 19.43%, the Activity [11] was 47.36% and the viability at 0.5 µM [12] was 65.6%. The wound closure at 0.25 µM [13] was 17%, the Vd [14] was 0.59 L/kg and the Activity [15] was “Non-toxic”. For the same molecule, the viability at 0.25 µM [16] was 66.9%, the Activity [17] was “Non-toxic” and the IC50 [18] was 460 nM. The clearance [19] was 68 mL/min/kg, the Activity [20] was 24.81% and the inhibition [21] was “Dose-dependent-effect”. For the same molecule, the Activity [22] was “Active”, the Activity [23] was 23.01% and the inhibition in vivo at 1 mg/kg [24] was 51%. It also gave an Activity [25] of 63.82%, an inhibition at 0.25 µM [26] of 91% and an Activity [27] of 3.49%. For the same molecule, the Activity [28] was 35%, the inhibition [29] was “Active; Entirely Suppressed Clone Formation Was Observed” and the Activity [30] was “Non-toxic”. It also gave an Activity [31] of 6.11%, an IC50 [32] of 220 nM and an IC50 [33] of 6180 nM. For the same molecule, the Activity [34] was 3.33% and the solubility [35] was 5000 µg/mL (≈ 13 mM).
